These results are taken from ChEMBL document CHEMBL1671865, “Clostridium difficile infections in a Canadian tertiary care hospital before and during a regional epidemic associated with the BI/NAP1/027 strain” (2008).

≈ marks a conversion by molar mass, not a printed value. Some results are limits rather than exact numbers.

Common to all, as to type: functional
The test system of experiment [1] is Clostridioides difficile. Briefly: Antimicrobial activity against Clostridium difficile harboring other ribotypes by CLSI agar dilution method.
In experiment [2] the test system is Clostridioides difficile. Description: Antimicrobial activity against Clostridium difficile harboring ribotype 001 by CLSI agar dilution method. (Agar dilution tests growth on a series of plates holding different concentrations.)
Experiment [3] concerns Clostridioides difficile. Description: Antimicrobial activity against Clostridium difficile harboring ribotype 027 by CLSI agar dilution method.

One may read the MIC50 as an inhibitory concentration at the 50% level, which refers to growth in some studies and to a panel of isolates in others. Read a low MIC50 as higher susceptibility. As usually defined, the MIC90 is an inhibitory concentration at the 90% level, which refers to growth in some studies and to a panel of isolates in others. Read a low MIC90 as higher susceptibility. By MIC is commonly meant the least concentration at which growth counts as inhibited. On to `CCC[C@@H]1C[C@@H](C(=O)N[C@@H]([C@H]2O[C@H](SC)[C@H](O)[C@@H](O)[C@H]2O)[C@H](C)Cl)N(C)C1` [CLINDAMYCIN], for which, in the experiment on Clostridioides difficile [1], the MIC50 is 4 mg/L (≈ 9.41 µM) and the MIC90 came to 8 mg/L (≈ 18.8 µM). In the experiment on Clostridioides difficile [2], this compound had a minimum inhibitory concentration (MIC) greater than 64 mg/L, an MIC50 greater than 64 mg/L and an MIC90 greater than 64 mg/L. For the same compound, in the experiment with Clostridioides difficile [3], the MIC50 stood at 4 mg/L (≈ 9.41 µM) and the MIC90 is 8 mg/L (≈ 18.8 µM).

On to RAMOPLANIN, for which the MIC50 in the experiment with Clostridioides difficile [1] amounted to 0.25 mg/L; in the experiment on Clostridioides difficile [2], 0.25 mg/L; in the experiment on Clostridioides difficile [3], 0.12 mg/L. The MIC90 in the experiment on Clostridioides difficile [1], in the experiment on Clostridioides difficile [2] and with Clostridioides difficile [3] was 0.25 mg/L throughout.

On to `Cc1ncc([N+](=O)[O-])n1CCO` [METRONIDAZOLE], for which the MIC50 in the experiment with Clostridioides difficile [1] amounted to 0.25 mg/L (≈ 1.46 µM); against Clostridioides difficile [2] it was 0.5 mg/L (≈ 2.92 µM); against Clostridioides difficile [3], 1 mg/L (≈ 5.84 µM). The values for the MIC90 in the experiment on Clostridioides difficile [1], with Clostridioides difficile [2] and against Clostridioides difficile [3] were 0.5 mg/L (≈ 2.92 µM), 0.5 mg/L (≈ 2.92 µM) and 1 mg/L (≈ 5.84 µM), respectively.

Take `CCS(=O)(=O)CCn1c([N+](=O)[O-])cnc1C` [TINIDAZOLE]: the MIC50 against Clostridioides difficile [1] amounted to 0.25 mg/L (≈ 1.01 µM); against Clostridioides difficile [2] it was 0.5 mg/L (≈ 2.02 µM); against Clostridioides difficile [3], 1 mg/L (≈ 4.04 µM). Further, the MIC90 against Clostridioides difficile [1] came to 0.5 mg/L (≈ 2.02 µM); against Clostridioides difficile [2], 0.5 mg/L (≈ 2.02 µM); against Clostridioides difficile [3], 1 mg/L (≈ 4.04 µM).

In the experiment with Clostridioides difficile [1], `CN[C@H](CC(C)C)C(=O)N[C@H]1C(=O)N[C@@H](CC(N)=O)C(=O)N[C@H]2C(=O)N[C@H]3C(=O)N[C@H](C(=O)N[C@H](C(=O)O)c4cc(O)cc(O)c4-c4cc3ccc4O)[C@H](O)c3ccc(c(Cl)c3)Oc3cc2cc(c3O[C@@H]2O[C@H](CO)[C@@H](O)[C@H](O)[C@H]2O[C@H]2C[C@](C)(N)[C@H](O)[C@H](C)O2)Oc2ccc(cc2Cl)[C@H]1O` [VANCOMYCIN] displayed an MIC50 of 1 mg/L (≈ 0.69 µM) and an MIC90 of 1 mg/L (≈ 0.69 µM). In the experiment on Clostridioides difficile [2], this compound registered an MIC50 of 1 mg/L (≈ 0.69 µM) and an MIC90 of 1 mg/L (≈ 0.69 µM). Also, in the experiment on Clostridioides difficile [3], the MIC was 0.5 mg/L (≈ 0.345 µM), the MIC50 was determined as 0.5 mg/L (≈ 0.345 µM) and the MIC90 was determined as 2 mg/L (≈ 1.38 µM).

As to `COc1c(N2CCNC(C)C2)c(F)cc2c(=O)c(C(=O)O)cn(C3CC3)c12` (stereo not drawn) [GATIFLOXACIN], the results for the MIC50 against Clostridioides difficile [1], in the experiment on Clostridioides difficile [2] and with Clostridioides difficile [3] were 2 mg/L (≈ 5.33 µM), 32 mg/L (≈ 85.2 µM) and greater than 32 mg/L, respectively. Besides, the MIC90 is greater than 32 mg/L with Clostridioides difficile [1], 32 mg/L (≈ 85.2 µM) against Clostridioides difficile [2] and greater than 32 mg/L against Clostridioides difficile [3].
